Converted amounts (≈) assume the structure as drawn.
Assay: Solubility of monomers and polymers in water, methanol, chloroform
Format: physicochemical
From the text: Monomer solubility (e.g., in water, methanol, or chloroform) varied with the selection of R-groups on the ammonium cation.

Row | solubility (methanol, organic solvent or mixture, monomer, room temperature, read-out: Monomer solubility in MeOH (clear solution)) | Structure (SMILES) | Monomer solubility in MeOH (similar concentration (˜500 mg mL-1))
1 | – | C=Cc1ccc(CC(CC[N+](CCCC)(CCCC)CCCC)S(=O)(=O)[O-])cc1 (centres unmarked) [tri-n-butyl derivative, 4-(Tributylammonio)-1-(4-vinylphenyl)butane-2-sulfonate] | required slightly elevated temperatures to attain solubility in MeOH
2 | ~500 mg/mL (≈ 1310 mM) | C=Cc1ccc(CC(CC[N+](CCC)(CCC)CCC)S(=O)(=O)[O-])cc1 (centres unmarked) [tri-n-propyl derivative, 4-(Tripropylammonio)-1-(4-vinylphenyl)butane-2-sulfonate] | –
